4 compounds from patent US10358436B2, “Kinase inhibitors and method of treating cancer” (University Health Network, priority 2010, dated 2019) can be followed below.

Each structure is given as a SMILES string. Counter-ions that a name gives are not always drawn.

Common to all, as to type: biochemical
Assay [1] concerns the target human PLK4 (Homo sapiens (Human), UniProt O00444). As to the kind of experiment: PLK4 inhibition assay (indirect ELISA). The conditions noted are these: read-out: PLK4 IC50 Ranges.
Assay [2] addresses T1, Aurora A (Homo sapiens (Human), UniProt O14965). Description: Aurora A inhibition assay (Z-Lyte).
Assay [3] concerns the target Aurora B (Homo sapiens (Human), UniProt Q96GD4). As to the kind of experiment: Aurora B inhibition assay (Z-Lyte). The note with it: read-out: Aurora B IC50 Ranges.
For assay [4], the target named is T2, FLT3 (Homo sapiens (Human), UniProt P36888). As to the kind of experiment: FLT3 inhibition assay (Z-Lyte). The conditions noted are these: read-out: Flt3 IC50 Ranges.
Assay [5] concerns the target Abl (Homo sapiens (Human), UniProt P00519). The conditions noted are these: read-out: % Inhibition @ 0.1 μM, Abl.
In assay [6] the target is Abl (m) (Mus musculus (Mouse), UniProt P00520). The note with it: read-out: % Inhibition @ 0.1 μM, Abl (m).
The target in assay [7] is Abl (H396P) (Homo sapiens (Human), UniProt P00519, H396P). The note with it: read-out: % Inhibition @ 0.1 μM, Abl (H396P).
In assay [8] the target is Abl (M351T) (Homo sapiens (Human), UniProt P00519, M351T). The conditions noted are these: read-out: % Inhibition @ 0.1 μM, Abl (M351T).
The target in assay [9] is Abl (Q252H) (Homo sapiens (Human), UniProt P00519, Q252H). The conditions noted are these: read-out: % Inhibition @ 0.1 μM, Abl (Q252H).
For assay [10], the target named is Abl (T315I) (Homo sapiens (Human), UniProt P00519, T315I). The note with it: read-out: % Inhibition @ 0.1 μM, Abl (T315I).
In assay [11] the target is Abl (Y253F) (Homo sapiens (Human), UniProt P00519, Y253F). The note with it: read-out: % Inhibition @ 0.1 μM, Abl (Y253F).
Assay [12] deals with ALK (Homo sapiens (Human), UniProt Q9UM73). The note with it: read-out: % Inhibition @ 0.1 μM, ALK.
Assay [13] addresses Arg (Homo sapiens (Human), UniProt P42684). The note with it: read-out: % Inhibition @ 0.1 μM, Arg.
The target in assay [14] is Arg (m) (Mus musculus (Mouse), UniProt Q4JIM5). The conditions noted are these: read-out: % Inhibition @ 0.1 μM, Arg (m).
The target of assay [15] is ARK5 (Homo sapiens (Human), UniProt O60285). The conditions noted are these: read-out: % Inhibition @ 0.1 μM, ARK5.
The target in assay [16] is T1, Aurora A. The conditions noted are these: read-out: % Inhibition @ 0.1 μM, Aurora-A.
The target in assay [17] is Bmx (Homo sapiens (Human), UniProt P51813). The conditions noted are these: read-out: % Inhibition @ 0.1 μM, Bmx.
Assay [18] concerns the target EphA1 (Homo sapiens (Human), UniProt P21709). The conditions noted are these: read-out: % Inhibition @ 0.1 μM, EphA1.
Assay [19] deals with FGFR1 (Homo sapiens (Human), UniProt P11362). The note with it: read-out: % Inhibition @ 0.1 μM, FGFR1.
The target in assay [20] is FGFR1 (V561M) (Homo sapiens (Human), UniProt P11362, V561M). The conditions noted are these: read-out: % Inhibition @ 0.1 μM, FGFR1 (V561M).
Assay [21] deals with FGFR2 (Homo sapiens (Human), UniProt P21802). The note with it: read-out: % Inhibition @ 0.1 μM, FGFR2.
The target in assay [22] is FGFR2 (N549H) (Homo sapiens (Human), UniProt P21802, N549H). The conditions noted are these: read-out: % Inhibition @ 0.1 μM, FGFR2 (N549H).
For assay [23], the target named is FGFR3 (Homo sapiens (Human), UniProt P22607). The conditions noted are these: read-out: % Inhibition @ 0.1 μM, FGFR3.
Assay [24] addresses GCK (Homo sapiens (Human), UniProt Q12851). The note with it: read-out: % Inhibition @ 0.1 μM, GCK.
In assay [25] the target is IRAK1 (Homo sapiens (Human), UniProt P51617). The conditions noted are these: read-out: % Inhibition @ 0.1 μM, IRAK1.
Assay [26] concerns the target Itk (Homo sapiens (Human), UniProt Q08881). The conditions noted are these: read-out: % Inhibition @ 0.1 μM, Itk.
In assay [27] the target is Lck (Homo sapiens (Human), UniProt P06239). The conditions noted are these: read-out: % Inhibition @ 0.1 μM, Lck.
Assay [28] deals with Lck activated (Homo sapiens (Human), UniProt P06239). The note with it: read-out: % Inhibition @ 0.1 μM, Lck activated.
In assay [29] the target is MuSK (Homo sapiens (Human), UniProt O15146). The note with it: read-out: % Inhibition @ 0.1 μM, MuSK.
The target in assay [30] is Ret (V804L) (Homo sapiens (Human), UniProt P07949, V804L). The note with it: read-out: % Inhibition @ 0.1 μM, Ret (V804L).
Assay [31] has as its target Ron (Homo sapiens (Human), UniProt Q04912). The note with it: read-out: % Inhibition @ 0.1 μM, Ron.
The target in assay [32] is Ros (Homo sapiens (Human), UniProt P08922). The note with it: read-out: % Inhibition @ 0.1 μM, Ros.
The target of assay [33] is Tie2 (Homo sapiens (Human), UniProt Q02763). The note with it: read-out: % Inhibition @ 0.1 μM, Tie2.
The target of assay [34] is Tie2 (R849W) (Homo sapiens (Human), UniProt Q02763, R849W). The note with it: read-out: % Inhibition @ 0.1 μM, Tie2 (R849W).
Assay [35] deals with Tie2 (Y897S) (Homo sapiens (Human), UniProt Q02763, Y897S). The note with it: read-out: % Inhibition @ 0.1 μM, Tie2 (Y897S).
Assay [36] addresses TRKA (Homo sapiens (Human), UniProt P04629). The conditions noted are these: read-out: % Inhibition @ 0.1 μM, TrkA.
Assay [37] concerns the target T2, FLT3. Description: Kinase selectivity assay (CEREP HTRF panel). In general terms: In TR-FRET formats the signal depends on donor and acceptor labels being close together.
The target of assay [38] is KDR kinase (VEGFR2) (Homo sapiens (Human), UniProt P35968). Description: Kinase selectivity assay (CEREP HTRF panel).

T2 sequence (P36888 27-993): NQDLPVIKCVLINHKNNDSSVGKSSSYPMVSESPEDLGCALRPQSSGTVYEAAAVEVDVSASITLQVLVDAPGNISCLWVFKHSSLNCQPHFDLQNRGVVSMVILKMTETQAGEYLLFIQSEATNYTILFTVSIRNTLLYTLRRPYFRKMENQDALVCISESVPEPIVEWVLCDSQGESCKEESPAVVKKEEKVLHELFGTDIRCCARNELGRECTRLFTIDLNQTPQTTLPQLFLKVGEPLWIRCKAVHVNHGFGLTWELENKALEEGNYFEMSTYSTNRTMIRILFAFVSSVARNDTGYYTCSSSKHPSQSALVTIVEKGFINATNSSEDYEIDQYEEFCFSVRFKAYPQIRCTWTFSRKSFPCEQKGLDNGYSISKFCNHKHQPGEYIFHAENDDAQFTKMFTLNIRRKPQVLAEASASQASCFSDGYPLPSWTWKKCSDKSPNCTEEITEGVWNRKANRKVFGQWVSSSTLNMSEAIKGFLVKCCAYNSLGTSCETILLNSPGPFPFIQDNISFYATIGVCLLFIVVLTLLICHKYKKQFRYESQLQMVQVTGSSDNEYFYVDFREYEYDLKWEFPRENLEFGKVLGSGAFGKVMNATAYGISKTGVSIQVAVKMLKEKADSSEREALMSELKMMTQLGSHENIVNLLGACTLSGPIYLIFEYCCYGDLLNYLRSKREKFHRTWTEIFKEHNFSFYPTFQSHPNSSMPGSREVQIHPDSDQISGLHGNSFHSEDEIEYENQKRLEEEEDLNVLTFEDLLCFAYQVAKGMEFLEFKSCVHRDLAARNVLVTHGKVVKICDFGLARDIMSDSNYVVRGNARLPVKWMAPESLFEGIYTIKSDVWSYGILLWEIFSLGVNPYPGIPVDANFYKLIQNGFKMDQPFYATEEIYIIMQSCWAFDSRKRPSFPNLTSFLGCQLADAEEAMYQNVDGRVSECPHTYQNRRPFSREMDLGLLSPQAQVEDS
T1 sequence (O14965 whole entry): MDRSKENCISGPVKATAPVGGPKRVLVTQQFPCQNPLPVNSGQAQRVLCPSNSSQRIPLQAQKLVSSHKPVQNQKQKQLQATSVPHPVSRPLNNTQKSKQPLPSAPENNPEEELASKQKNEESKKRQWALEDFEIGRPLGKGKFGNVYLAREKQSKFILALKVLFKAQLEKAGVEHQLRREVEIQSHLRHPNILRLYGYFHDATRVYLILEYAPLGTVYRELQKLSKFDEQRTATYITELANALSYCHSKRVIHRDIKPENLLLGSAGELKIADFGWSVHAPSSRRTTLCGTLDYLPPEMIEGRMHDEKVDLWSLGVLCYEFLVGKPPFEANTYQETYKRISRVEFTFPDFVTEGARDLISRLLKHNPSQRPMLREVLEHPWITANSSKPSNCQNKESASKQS
Sequence of Aurora B (Q96GD4 whole entry): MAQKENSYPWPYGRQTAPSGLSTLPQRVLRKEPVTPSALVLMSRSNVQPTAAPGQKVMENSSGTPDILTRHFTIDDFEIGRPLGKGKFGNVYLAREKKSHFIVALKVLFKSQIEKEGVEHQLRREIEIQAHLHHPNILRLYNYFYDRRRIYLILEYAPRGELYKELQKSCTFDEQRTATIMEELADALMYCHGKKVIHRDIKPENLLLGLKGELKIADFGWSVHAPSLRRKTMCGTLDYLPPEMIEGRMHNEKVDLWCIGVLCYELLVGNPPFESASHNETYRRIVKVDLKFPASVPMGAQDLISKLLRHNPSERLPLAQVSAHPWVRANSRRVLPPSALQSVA
Sequence of human PLK4 (O00444 1-391): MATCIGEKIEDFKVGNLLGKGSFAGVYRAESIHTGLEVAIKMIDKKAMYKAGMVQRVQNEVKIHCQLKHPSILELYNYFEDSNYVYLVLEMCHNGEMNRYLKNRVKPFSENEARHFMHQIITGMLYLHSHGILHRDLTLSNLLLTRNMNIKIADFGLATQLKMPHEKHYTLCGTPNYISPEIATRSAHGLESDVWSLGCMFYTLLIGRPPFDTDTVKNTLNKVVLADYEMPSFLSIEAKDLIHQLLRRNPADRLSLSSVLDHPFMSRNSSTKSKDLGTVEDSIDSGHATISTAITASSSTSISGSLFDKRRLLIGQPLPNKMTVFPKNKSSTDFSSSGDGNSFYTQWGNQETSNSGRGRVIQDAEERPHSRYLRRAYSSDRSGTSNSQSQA
Sequence of Ros (P08922 28-2347): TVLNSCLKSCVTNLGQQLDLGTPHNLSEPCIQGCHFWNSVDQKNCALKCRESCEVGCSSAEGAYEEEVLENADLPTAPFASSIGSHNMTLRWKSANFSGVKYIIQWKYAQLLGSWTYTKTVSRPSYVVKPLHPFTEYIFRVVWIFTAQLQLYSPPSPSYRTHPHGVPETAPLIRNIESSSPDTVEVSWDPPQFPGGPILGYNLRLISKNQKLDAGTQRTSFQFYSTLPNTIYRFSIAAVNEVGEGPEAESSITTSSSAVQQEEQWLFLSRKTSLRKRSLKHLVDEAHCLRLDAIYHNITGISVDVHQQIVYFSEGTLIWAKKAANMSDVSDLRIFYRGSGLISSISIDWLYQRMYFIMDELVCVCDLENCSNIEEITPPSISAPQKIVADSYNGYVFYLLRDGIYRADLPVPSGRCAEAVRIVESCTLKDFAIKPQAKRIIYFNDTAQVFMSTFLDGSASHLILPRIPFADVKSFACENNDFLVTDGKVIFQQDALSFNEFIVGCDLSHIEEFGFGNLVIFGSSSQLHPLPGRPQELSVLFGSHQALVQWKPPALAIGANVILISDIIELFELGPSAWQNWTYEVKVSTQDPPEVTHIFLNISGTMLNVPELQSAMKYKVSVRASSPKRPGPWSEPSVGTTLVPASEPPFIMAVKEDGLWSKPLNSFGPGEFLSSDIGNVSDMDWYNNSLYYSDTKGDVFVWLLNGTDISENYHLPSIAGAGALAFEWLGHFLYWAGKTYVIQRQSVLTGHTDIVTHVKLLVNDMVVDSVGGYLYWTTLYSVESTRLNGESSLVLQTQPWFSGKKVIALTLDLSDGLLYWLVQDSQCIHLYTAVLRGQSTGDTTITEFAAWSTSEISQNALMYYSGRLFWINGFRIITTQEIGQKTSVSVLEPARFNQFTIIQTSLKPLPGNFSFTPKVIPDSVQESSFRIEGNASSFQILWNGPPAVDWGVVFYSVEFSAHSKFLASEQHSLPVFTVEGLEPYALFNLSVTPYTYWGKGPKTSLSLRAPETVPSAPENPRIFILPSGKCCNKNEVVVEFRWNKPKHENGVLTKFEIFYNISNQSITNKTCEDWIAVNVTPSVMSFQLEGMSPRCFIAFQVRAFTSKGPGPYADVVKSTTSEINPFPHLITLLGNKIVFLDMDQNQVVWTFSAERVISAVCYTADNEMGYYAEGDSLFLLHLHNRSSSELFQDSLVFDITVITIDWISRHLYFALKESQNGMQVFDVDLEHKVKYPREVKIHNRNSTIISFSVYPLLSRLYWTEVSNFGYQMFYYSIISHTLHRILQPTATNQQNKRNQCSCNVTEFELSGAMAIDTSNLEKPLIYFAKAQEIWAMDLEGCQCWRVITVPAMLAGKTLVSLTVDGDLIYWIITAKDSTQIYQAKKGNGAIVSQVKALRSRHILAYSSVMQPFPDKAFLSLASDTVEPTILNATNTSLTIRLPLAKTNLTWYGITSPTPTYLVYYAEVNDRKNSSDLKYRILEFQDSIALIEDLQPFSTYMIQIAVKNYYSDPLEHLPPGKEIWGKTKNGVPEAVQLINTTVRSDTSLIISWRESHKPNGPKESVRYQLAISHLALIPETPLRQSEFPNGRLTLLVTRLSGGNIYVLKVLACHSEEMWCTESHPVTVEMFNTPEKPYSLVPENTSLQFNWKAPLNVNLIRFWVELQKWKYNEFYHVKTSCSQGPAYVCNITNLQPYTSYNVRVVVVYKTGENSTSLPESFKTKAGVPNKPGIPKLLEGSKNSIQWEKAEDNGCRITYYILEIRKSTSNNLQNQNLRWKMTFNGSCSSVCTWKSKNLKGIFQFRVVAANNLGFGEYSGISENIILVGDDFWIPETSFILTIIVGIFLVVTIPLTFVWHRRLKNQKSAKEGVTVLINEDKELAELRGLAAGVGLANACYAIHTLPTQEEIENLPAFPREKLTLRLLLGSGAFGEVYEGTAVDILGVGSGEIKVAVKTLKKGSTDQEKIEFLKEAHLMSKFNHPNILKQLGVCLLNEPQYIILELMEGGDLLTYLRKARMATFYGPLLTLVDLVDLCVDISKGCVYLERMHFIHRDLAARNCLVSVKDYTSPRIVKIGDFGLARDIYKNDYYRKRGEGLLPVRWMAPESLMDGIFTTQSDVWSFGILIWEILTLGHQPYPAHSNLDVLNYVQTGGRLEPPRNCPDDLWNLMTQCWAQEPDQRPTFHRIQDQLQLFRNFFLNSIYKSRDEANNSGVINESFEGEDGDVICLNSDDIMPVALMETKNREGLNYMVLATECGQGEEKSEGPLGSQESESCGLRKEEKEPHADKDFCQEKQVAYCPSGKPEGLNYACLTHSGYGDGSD
Sequence of Lck (P06239 whole entry): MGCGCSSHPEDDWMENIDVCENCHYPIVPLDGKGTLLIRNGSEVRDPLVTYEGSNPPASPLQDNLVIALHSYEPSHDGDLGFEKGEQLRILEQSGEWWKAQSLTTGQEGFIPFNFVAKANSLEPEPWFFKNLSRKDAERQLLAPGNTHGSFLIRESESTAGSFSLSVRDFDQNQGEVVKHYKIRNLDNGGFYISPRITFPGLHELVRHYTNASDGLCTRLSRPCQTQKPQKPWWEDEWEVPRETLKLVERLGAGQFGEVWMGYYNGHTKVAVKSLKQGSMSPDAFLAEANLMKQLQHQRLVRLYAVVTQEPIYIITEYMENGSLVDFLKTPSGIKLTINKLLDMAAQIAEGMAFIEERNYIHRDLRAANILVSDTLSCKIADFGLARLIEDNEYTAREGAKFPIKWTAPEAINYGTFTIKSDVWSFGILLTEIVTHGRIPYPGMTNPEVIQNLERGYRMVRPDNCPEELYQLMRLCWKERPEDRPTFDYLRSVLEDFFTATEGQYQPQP
Sequence of Lck activated (P06239 whole entry): as above

A word on the IC50: it is the midpoint of a concentration-inhibition curve. What is called inhibition is the relative decrease from the control value, in per cent. On to `O=C1Nc2ccccc2[C@]12C[C@H]2c1ccc2c(-c3ccc(CN4CCOCC4)cc3)n[nH]c2c1` (relative stereo) [Example A154, (1R*,2S*)-2-(3-(4-(morpholinomethyl)phenyl)-1H-indazol-6-yl)spiro[cyclopropane-1,3′-indolin]-2′-one 2,2,2-trifluoroacetate], for which the IC50 in assay [1] was below 100 nM; in [3] it was 100 to 1000 nM; in assay [4] it was 100 to 1000 nM. In addition, the inhibition at 1 µM in assay [2] is above 50%.

For the compound `COc1ccc2c(c1)[C@]1(C[C@H]1c1ccc3c(/C=C/c4ccc(CN5CCOCC5)cc4)n[nH]c3c1)C(=O)N2` [Example A42, (1R,2S)-(E)-5′-methoxy-2-(3-(4-(morpholinomethyl)styryl)-1H-indazol-6-yl)spiro[cyclopropane-1,3′-indolin]-2′-one hydrochloride], the inhibition at 1 µM in assay [2] is above 50%. In addition, the inhibition at 0.1 µM in assay [5] was found to be 77%; in assay [6], 92%; in assay [7], 93%; in assay [8] it was 91%; in [9] it was 83%; in assay [10], 98%. For the same compound, the inhibition at 0.1 µM worked out at 75% in assay [11]; 64% in assay [12]; 89% in assay [13]; 90% in assay [14]; 86% in [15]; 100% in assay [16]. In addition, the inhibition at 0.1 µM is 92% in [17]; […] in [18]; […] in assay [19]; 91% in [20]; 88% in assay [21]; 87% in assay [22]. Also, the inhibition at 0.1 µM in assay [23] is 90%; in assay [24] it was 80%; in assay [25] it was 52%; in [26], 82%; in assay [27] it was 77%; in assay [28], 90%. In addition, the inhibition at 0.1 µM in assay [29] came out at 90%; in assay [30], 60%; in assay [31] it was 62%; in assay [32] it was 93%; in assay [33], 98%; in assay [34] it was 83%. In addition, the inhibition at 0.1 µM is 92% in [35] and 100% in assay [36].

In the case of `COc1ccc2c(c1)[C@]1(C[C@H]1c1ccc3c(-c4cccc(C(=O)N5CCN(C)CC5)c4)n[nH]c3c1)C(=O)N2` (relative stereo) [Example A149, (1R*,2S*)-5′-methoxy-2-(3-(3-(4-methylpiperazine-1-carbonyl)phenyl)-1H-indazol-6-yl)spiro[cyclopropane-1,3′-indolin]-2′-one 2,2,2-trifluoroacetate], the IC50 in assay [1] is below 100 nM; in [3], above 1000 nM; in assay [4], above 1000 nM. Moreover, in [2], the inhibition at 1 µM was below 50%.

As for `CN(C)Cc1ccc(/C=C/c2n[nH]c3cc([C@H]4C[C@@]45C(=O)Nc4ccccc45)ccc23)cc1` (relative stereo) [Example A26, (1R*,2R*)-(E)-2-(3-(4-((dimethylamino)methyl)styryl)-1H-indazol-6-yl)spiro[cyclopropane-1,3′-indolin]-2′-one 2,2,2-trifluoroacetate], the values for the inhibition at 10 µM in assay [37] and in assay [38] were 102% and 58%, respectively.
